Data: US20230128402A1 (The Trustees of Princeton University, priority 2020, published 2023)

Experiments:
mALDH1a3 = molecular target: T1, mALDH1a3 (Mus musculus, UniProt Q9JHW9); experiment: Aldh1a3 enzyme inhibition assay, recombinant mALDH1a3; assay type: biochemical; conditions: resorufin fluorescence, 20° C.
T1 construct: made in house; host or cells: E. coli BL21-DE3, pET-Aldh1a3
T1 sequence (Q9JHW9 1-512): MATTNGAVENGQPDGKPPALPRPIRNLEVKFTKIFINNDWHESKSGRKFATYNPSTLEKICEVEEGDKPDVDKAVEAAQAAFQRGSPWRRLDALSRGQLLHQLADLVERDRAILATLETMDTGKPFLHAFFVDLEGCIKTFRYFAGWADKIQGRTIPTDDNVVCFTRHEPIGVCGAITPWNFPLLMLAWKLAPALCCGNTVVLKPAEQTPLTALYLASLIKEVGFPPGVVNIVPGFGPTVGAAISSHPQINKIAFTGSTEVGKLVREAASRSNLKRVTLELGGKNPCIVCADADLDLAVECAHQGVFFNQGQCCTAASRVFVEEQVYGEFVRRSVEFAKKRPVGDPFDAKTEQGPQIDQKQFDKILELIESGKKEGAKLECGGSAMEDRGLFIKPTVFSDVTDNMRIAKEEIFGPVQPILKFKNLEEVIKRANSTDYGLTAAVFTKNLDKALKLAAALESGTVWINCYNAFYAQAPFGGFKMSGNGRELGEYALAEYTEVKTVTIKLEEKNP
Source text: (§1) Recombinant enzyme and inhibitor added immediately before assay. Reaction rate measured by resorufin fluorescence.

ALDH1a3 = molecular target: T2, ALDH1a3 (Homo sapiens, UniProt P47895); experiment: Aldh1a3 enzyme inhibition assay, recombinant hALDH1a3; assay type: biochemical; design: made in house; host or cells: E. coli BL21-DE3, pET-Aldh1a3; conditions: resorufin fluorescence, 20° C.
T2 sequence (P47895 1-512): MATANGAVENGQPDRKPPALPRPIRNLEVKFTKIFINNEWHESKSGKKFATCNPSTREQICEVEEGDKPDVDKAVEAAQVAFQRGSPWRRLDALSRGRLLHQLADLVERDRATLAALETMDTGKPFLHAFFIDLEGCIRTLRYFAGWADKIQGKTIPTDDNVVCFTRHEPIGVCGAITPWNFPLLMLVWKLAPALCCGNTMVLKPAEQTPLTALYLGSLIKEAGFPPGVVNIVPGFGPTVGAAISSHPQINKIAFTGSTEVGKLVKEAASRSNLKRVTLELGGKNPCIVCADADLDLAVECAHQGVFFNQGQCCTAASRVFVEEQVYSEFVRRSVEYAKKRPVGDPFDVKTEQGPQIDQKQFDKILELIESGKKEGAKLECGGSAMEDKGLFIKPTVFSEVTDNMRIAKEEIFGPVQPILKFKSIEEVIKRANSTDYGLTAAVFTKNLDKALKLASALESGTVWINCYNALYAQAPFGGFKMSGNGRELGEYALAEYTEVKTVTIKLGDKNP
Source text: as §1

IC50 (mALDH1a3) [nM]	IC50 (ALDH1a3) [nM]	Structure (SMILES)
250 to 1000	100 to 250	CCCc1cnccc1C(=O)Nc1ccc2c(c1)CCC(=O)N2 [Compound 60, N-(2-oxo-3,4-dihydro-1H-quinolin-6-yl)-3-propyl-pyridine-4-carboxamide]
1000 to 5000	100 to 250	CCc1cnccc1C(=O)Nc1ccc2c(c1)CC1(CC1)C(=O)N2 [Compound 61, 3-ethyl-N-(2-oxospiro[1,4-dihydroquinoline-3,1′-cyclopropane]-6-yl)pyridine-4-carboxamide]
> 5000	1000 to 5000	CCc1cnccc1C(=O)Nc1ccc2c(c1)CC(C)(CC)C(=O)N2 (stereo not drawn) [Compound 62, 3-ethyl-N-(3-ethyl-3-methyl-2-oxo-1,4-dihydroquinolin-6-yl)pyridine-4-carboxamide]
250 to 1000	100 to 250	CCc1cnccc1C(=O)Nc1ccc2c(c1)CC(C)C(=O)N2 (stereo not drawn) [Compound 63, 3-ethyl-N-(3-methyl-2-oxo-3,4-dihydro-1H-quinolin-6-yl)pyridine-4-carboxamide]
250 to 1000	100 to 250	CCc1cnccc1C(=O)Nc1ccc2c(c1)C(C)CC(=O)N2 (stereo not drawn) [Compound 64, 3-ethyl-N-(4-methyl-2-oxo-3,4-dihydro-1H-quinolin-6-yl)pyridine-4-carboxamide]
> 5000	1000 to 5000	Cc1cc(C(=O)Nc2ccc3c(c2)CC2(CC2)C(=O)N3)c(Cl)cn1 [Compound 68]
> 5000	> 5000	CC(C)=Cc1cnc(C)cc1C(=O)Nc1ccc2c(c1)CC(C)(C)C(=O)N2 [Compound 69]
250 to 1000	< 100	CCc1cnccc1C(=O)Nc1cc2c(cc1Cl)NC(=O)CC2 [Compound 70, N-(7-chloro-2-oxo-3,4-dihydro-1H-quinolin-6-yl)-3-ethyl-pyridine-4-carboxamide]
1000 to 5000	250 to 1000	C=CCc1cnccc1C(=O)Nc1ccc2c(c1)CCC(=O)N2 [Compound 71, 3-allyl-N-(2-oxo-3,4-dihydro-1H-quinolin-6-yl)pyridine-4-carboxamide]
250 to 1000	250 to 1000	CCc1cccnc1C(=O)Nc1cc2c(cc1Cl)NC(=O)CC2 [Compound 72, N-(7-chloro-2-oxo-3,4-dihydro-1H-quinolin-6-yl)-3-ethyl-pyridine-2-carboxamide]
> 5000	1000 to 5000	CCc1c[n+]([O-])ccc1C(=O)Nc1ccc2c(c1)CCC(=O)N2 [Compound 73, 3-ethyl-1-oxido-N-(2-oxo-3,4-dihydro-1H-quinolin-6-yl)pyridin-1-ium-4-carboxamide]
> 5000	> 5000	CCc1cc(=O)n(C)cc1C(=O)Nc1ccc2c(c1)CCC(=O)N2 [Compound 76, 4-ethyl-1-methyl-6-oxo-N-(2-oxo-3,4-dihydro-1H-quinolin-6-yl)pyridine-3-carboxamide]
250 to 1000	< 100	CCc1cnc(F)cc1C(=O)Nc1ccc2c(c1)CCC(=O)N2 [Compound 78, 5-ethyl-2-fluoro-N-(2-oxo-3,4-dihydro-1H-quinolin-6-yl)pyridine-4-carboxamide]
250 to 1000	250 to 1000	CCc1cnc(C)cc1C(=O)Nc1cc2c(cc1F)NC(=O)CC2 [Compound 79, 5-ethyl-N-(7-fluoro-2-oxo-3,4-dihydro-1H-quinolin-6-yl)-2-methyl-pyridine-4 carboxamide]
250 to 1000	< 100	CCc1cnc(Cl)cc1C(=O)Nc1cc2c(cc1F)NC(=O)CC2 [Compound 80, 2-chloro-5-ethyl-N-(7-fluoro-2-oxo-3,4-dihydro-1H-quinolin-6-yl)pyridine-4-carboxamide]
< 100	< 100	O=C1CCc2cc(NC(=O)c3ccncc3CC3CC3)c(F)cc2N1 [Compound 81, 3-(cyclopropylmethyl)-N-(7-fluoro-2-oxo-3,4-dihydro-1H-quinolin-6-yl)pyridine-4-carboxamide]
250 to 1000	250 to 1000	CCc1cnccc1C(=O)Nc1cc2c(cc1C#N)NC(=O)CC2 [Compound 84, N-(7-cyano-2-oxo-3,4-dihydro-1H-quinolin-6-yl)-3-ethyl-pyridine-4-carboxamide]
> 5000	> 5000	CCc1cnccc1C(=O)Nc1ccc2c(c1F)CCC(=O)N2 [Compound 85]

IC50 (mALDH1a3) [nM]	IC50 (ALDH1a3) [nM]	Structure (SMILES)
1000 to 5000	> 5000	N#Cc1cccc2nc(Nc3ccc4c(c3)CCC(=O)N4)ccc12 [Compound 86, 2-[(2-oxo-3,4-dihydro-1H-quinolin-6-yl)amino]quinoline-5-carbonitrile]
< 100	250 to 1000	Cc1cccc2nc(Nc3ccc4c(c3)CCC(=O)N4)ccc12 [Compound 87, 6-[(5-methyl-2-quinolyl)amino]-3,4-dihydro-1H-quinolin-2-one]
> 5000	> 5000	N#Cc1ccc2nc(Nc3ccc4c(c3)CCC(=O)N4)ccc2c1 [Compound 88, 2-[(2-oxo-3,4-dihydro-1H-quinolin-6-yl)amino]quinoline-6-carbonitrile]
1000 to 5000	> 5000	Cc1ccc2nc(Nc3ccc4c(c3)CCC(=O)N4)ccc2c1 [Compound 89, 6-[(6-methyl-2-quinolyl)amino]-3,4-dihydro-1H-quinolin-2-one]
> 5000	> 5000	N#Cc1ccc2ccc(Nc3ccc4c(c3)CCC(=O)N4)nc2c1 [Compound 90, 2-[(2-oxo-3,4-dihydro-1H-quinolin-6-yl)amino]quinoline-7-carbonitrile]
1000 to 5000	> 5000	Cc1ccc2ccc(Nc3ccc4c(c3)CCC(=O)N4)nc2c1 [Compound 91, 6-[(7-methyl-2-quinolyl)amino]-3,4-dihydro-1H-quinolin-2-one]
100 to 250	100 to 250	CC1(C)Cc2cc(Nc3cnc4ccccc4n3)ccc2NC1=O [Compound 92, 3,3-dimethyl-6-(quinoxalin-2-ylamino)-1,4-dihydroquinolin-2-one]
250 to 1000	250 to 1000	CC1(C)Cc2cc(Nc3ncc4ccccc4n3)ccc2NC1=O [Compound 93, 3,3-dimethyl-6-(quinazolin-2-ylamino)-1,4-dihydroquinolin-2-one]
> 5000	1000 to 5000	CC1(C)Cc2cc(Nc3ccc4ccncc4n3)ccc2NC1=O [Compound 94, 3,3-dimethyl-6-(1,7-naphthyridin-2-ylamino)-1,4-dihydroquinolin-2-one]
> 5000	> 5000	CC1(C)Cc2cc(Nc3ccc4cnccc4n3)ccc2NC1=O [Compound 95, 3,3-dimethyl-6-(1,6-naphthyridin-2-ylamino)-1,4-dihydroquinolin-2-one]
> 5000	> 5000	Cc1ccc(Nc2ccc3c(c2)CC(C)(C)C(=O)N3)nc1C [Compound 96, 6-[(5,6-dimethyl-2-pyridyl)amino]-3,3-dimethyl-1,4-dihydroquinolin-2-one]
> 5000	1000 to 5000	CC1(C)Cc2cc(Nc3ccc(Cl)c(Cl)n3)ccc2NC1=O [Compound 97, 6-[(5,6-dichloro-2-pyridyl)amino]-3,3-dimethyl-1,4-dihydroquinolin-2-one]
1000 to 5000	1000 to 5000	CC1(C)Cc2cc(Nc3nc4ccccc4[nH]3)ccc2NC1=O [Compound 98, 6-(1H-benzimidazol-2-ylamino)-3,3-dimethyl-1,4-dihydroquinolin-2-one]
250 to 1000	250 to 1000	CC1(C)Cc2cc(Nc3nc4ccccc4o3)ccc2NC1=O [Compound 99, 6-(1,3-benzoxazol-2-ylamino)-3,3-dimethyl-1,4-dihydroquinolin-2-one]
> 5000	> 5000	N#Cc1cccc2ncc(Nc3ccc4c(c3)CCC(=O)N4)cc12 [Compound 100, 3-[(2-oxo-3,4-dihydro-1H-quinolin-6-yl)amino]quinoline-5-carbonitrile]
1000 to 5000	1000 to 5000	Cc1cccc2ncc(Nc3ccc4c(c3)CCC(=O)N4)cc12 [Compound 101, 6-[(5-methyl-3-quinolyl)amino]-3,4-dihydro-1H-quinolin-2-one]
> 5000	> 5000	O=S1(=O)CCc2cc(Nc3ccc4ccccc4n3)ccc2N1 [Compound 102]
> 5000	> 5000	CC1(C)Cc2cc(Nc3ccc4cnccc4c3)ccc2NC1=O [Compound 103, 6-(6-isoquinolylamino)-3,3-dimethyl-1,4-dihydroquinolin-2-one]
